Reference: patent publication US12493040B2, “Cancer detection method using sense of smell of nematode” (HIROTSU BIO SCIENCE INC., priority 2013, dated 2025)

Test system: RNAi-treated eri-1 (mg366) nematodes
Experiment: RNAi screening of olfactory receptor genes: chemotaxis assay of RNAi-treated nematodes to odorants
Format: in vivo, Caenorhabditis elegans
Conditions: repellent or high concentration of attractant
How it was run: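 eri-1 (mg366) worms knocked down by feeding RNAi (Ahringer library) on IPTG/ampicillin NGM plates with E. coli for 4 days, then tested for chemotaxis, 30–50 worms per assay. Odorants at 1 μl of 10^−3 or 10^−4 dilution, or 1 and 5 μl undiluted. Hits scored by z score, thresholds ±1.96 (P<0.05) or ±0.96.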

SMILES: CCCCCCCC(C)=O [nonanone]
- chemotaxis index (Control nematodes): −0.91 ± 0.009
- chemotaxis index (srh-4 RNAi-treated nematodes): −0.87
- chemotaxis index (srh-7 RNAi-treated nematodes): −0.78
- chemotaxis index (srh-8 RNAi-treated nematodes): −0.86
- chemotaxis index (srh-10 RNAi-treated nematodes): −0.88
- chemotaxis index (srh-11 RNAi-treated nematodes): −0.65
- chemotaxis index (srh-15 RNAi-treated nematodes): −0.25
- chemotaxis index (srh-16 RNAi-treated nematodes): −0.63
- chemotaxis index (srh-18 RNAi-treated nematodes): −0.26
- chemotaxis index (srh-19 RNAi-treated nematodes): −0.80
- chemotaxis index (srh-22 RNAi-treated nematodes): −0.89
- chemotaxis index (srh-23 RNAi-treated nematodes): −0.77
- chemotaxis index (srh-24 RNAi-treated nematodes): −0.79
- chemotaxis index (srh-25 RNAi-treated nematodes): −0.06
- chemotaxis index (srh-27 RNAi-treated nematodes): −0.79
- chemotaxis index (srh-28 RNAi-treated nematodes): −0.71
- chemotaxis index (srh-36 RNAi-treated nematodes): −0.57
- chemotaxis index (srh-37 RNAi-treated nematodes): −0.89
- chemotaxis index (srh-39 RNAi-treated nematodes): −0.90
- chemotaxis index (srh-40 RNAi-treated nematodes): −0.83
- chemotaxis index (srh-41 RNAi-treated nematodes): −0.62
- chemotaxis index (srh-44 RNAi-treated nematodes): −0.58
- chemotaxis index (srh-45 RNAi-treated nematodes): −0.91
- chemotaxis index (srh-46 RNAi-treated nematodes): −0.87
- chemotaxis index (srh-48 RNAi-treated nematodes): −0.79
- chemotaxis index (srh-49 RNAi-treated nematodes): −0.91
- chemotaxis index (srh-50 RNAi-treated nematodes): −0.96
- chemotaxis index (srh-51 RNAi-treated nematodes): −0.90
- chemotaxis index (srh-52 RNAi-treated nematodes): −0.85
- chemotaxis index (srh-55 RNAi-treated nematodes): −0.96
- chemotaxis index (srh-59 RNAi-treated nematodes): −0.79
- chemotaxis index (srh-60 RNAi-treated nematodes): −0.83
- chemotaxis index (srh-61 RNAi-treated nematodes): −0.68
- chemotaxis index (srh-67 RNAi-treated nematodes): −0.61
- chemotaxis index (srh-68 RNAi-treated nematodes): −0.65
- chemotaxis index (srh-69 RNAi-treated nematodes): −0.84
- chemotaxis index (srh-70 RNAi-treated nematodes): −0.81
- chemotaxis index (srh-71 RNAi-treated nematodes): −0.80
- chemotaxis index (srh-72 RNAi-treated nematodes): −0.87
- chemotaxis index (srh-74 RNAi-treated nematodes): −0.96
- chemotaxis index (srh-75 RNAi-treated nematodes): −0.86
- chemotaxis index (srh-77 RNAi-treated nematodes): −0.74
- chemotaxis index (srh-79 RNAi-treated nematodes): −0.61
- chemotaxis index (srh-80 RNAi-treated nematodes): −0.81
- chemotaxis index (srh-82 RNAi-treated nematodes): −0.96
- chemotaxis index (srh-83 RNAi-treated nematodes): −0.70
- chemotaxis index (srh-97 RNAi-treated nematodes): −0.66
- chemotaxis index (srh-99 RNAi-treated nematodes): −0.82
- chemotaxis index (srh-100 RNAi-treated nematodes): −0.48
- chemotaxis index (srh-104 RNAi-treated nematodes): −0.71
- chemotaxis index (srh-105 RNAi-treated nematodes): −0.80
- chemotaxis index (srh-109 RNAi-treated nematodes): −0.84
- chemotaxis index (srh-111 RNAi-treated nematodes): −0.71
- chemotaxis index (srh-113 RNAi-treated nematodes): −0.91
- chemotaxis index (srh-115 RNAi-treated nematodes): −0.75
- chemotaxis index (srh-116 RNAi-treated nematodes): −0.69
- chemotaxis index (srh-118 RNAi-treated nematodes): −0.89
- chemotaxis index (srh-119 RNAi-treated nematodes): −0.84
- chemotaxis index (srh-120 RNAi-treated nematodes): −0.68
- chemotaxis index (srh-122 RNAi-treated nematodes): −0.84
- chemotaxis index (srh-123 RNAi-treated nematodes): −0.90
- chemotaxis index (srh-125 RNAi-treated nematodes): −0.77
- chemotaxis index (srh-128 RNAi-treated nematodes): −0.89
- chemotaxis index (srh-129 RNAi-treated nematodes): −0.90
- chemotaxis index (srh-130 RNAi-treated nematodes): −0.94
- chemotaxis index (srh-131 RNAi-treated nematodes): −0.45
- chemotaxis index (srh-132 RNAi-treated nematodes): −0.84
- chemotaxis index (srh-139 RNAi-treated nematodes): −0.91
- chemotaxis index (srh-140 RNAi-treated nematodes): −0.80
- chemotaxis index (srh-141 RNAi-treated nematodes): −0.94
- chemotaxis index (srh-142 RNAi-treated nematodes): −0.94
- chemotaxis index (srh-145 RNAi-treated nematodes): −0.44
- chemotaxis index (srh-148 RNAi-treated nematodes): −0.78
- chemotaxis index (srh-154 RNAi-treated nematodes): −0.58
- chemotaxis index (srh-159 RNAi-treated nematodes): −0.48
- chemotaxis index (srh-165 RNAi-treated nematodes): −0.40
- chemotaxis index (srh-166 RNAi-treated nematodes): −1.00
- chemotaxis index (srh-167 RNAi-treated nematodes): −1.00
- chemotaxis index (srh-169 RNAi-treated nematodes): −0.92
- chemotaxis index (srh-174 RNAi-treated nematodes): −0.92
- chemotaxis index (srh-179 RNAi-treated nematodes): −0.97
- chemotaxis index (srh-182 RNAi-treated nematodes): −0.98
- chemotaxis index (srh-186 RNAi-treated nematodes): −0.93
- chemotaxis index (srh-190 RNAi-treated nematodes): −1.00
- chemotaxis index (srh-193 RNAi-treated nematodes): −0.84
- chemotaxis index (srh-195 RNAi-treated nematodes): −0.98
- chemotaxis index (srh-201 RNAi-treated nematodes): −0.97
- chemotaxis index (srh-203 RNAi-treated nematodes): −1.00
- chemotaxis index (srh-204 RNAi-treated nematodes): −1.00
- chemotaxis index (srh-206 RNAi-treated nematodes): −1.00
- chemotaxis index (srh-207 RNAi-treated nematodes): −1.00
- chemotaxis index (srh-208 RNAi-treated nematodes): −0.82
- chemotaxis index (srh-209 RNAi-treated nematodes): −0.84
- chemotaxis index (srh-210 RNAi-treated nematodes): −0.66
- chemotaxis index (srh-214 RNAi-treated nematodes): −0.96
- chemotaxis index (srh-216 RNAi-treated nematodes): −0.83
- chemotaxis index (srh-217 RNAi-treated nematodes): −0.44
- chemotaxis index (srh-220 RNAi-treated nematodes): −0.28
- chemotaxis index (srh-222 RNAi-treated nematodes): −0.82
- chemotaxis index (srh-223 RNAi-treated nematodes): −0.74
